Legend:
Format in all cases: in vivo
[1] = test system: redroot pigweed (Amaranthus retroflexus, AMARE); assay: Pre-emerge test, greenhouse herbicide activity screening; details: rating scale 0-100, 14 days after application
In short: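 Sandy loam pots; pre-emerge: sown 1 d pre-spray, surface-watered after, then bottom-watered. Post-emerge: sown 8–21 d before, 2–3 leaf stage, + 0.25% v/v NIS, bottom-watered. Acetone, 187 l/ha track spray, 15–1000 g ai/ha. 0–100 injury score, day 14.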

[2] = test system: upland rice (Oryza sp., var. Tebonnet, RICE); assay: Post-emerge test, crop safety; details: rating scale 0-100 (0 no damage, 100 complete death), 14 days after application
In short: (§1)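 Compounds in acetone were track-sprayed at 187 l/ha, 15–1000 g ai/ha, onto sandy loam pots. Pre-emerge seeds were sown one day before spraying, with surface watering afterwards. Post-emerge plants were at the 2–3 leaf stage and sprayed with 0.25% v/v non-ionic surfactant. Injury was rated 0–100 at 14 days.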

[3] = test system: field corn (Zea mays L., var. Dekalb 535, CORN); assay: Post-emerge test, crop safety; details: rating scale 0-100 (0 no damage, 100 complete death), 14 days after application
In short: as §1

[4] = test system: barnyardgrass (Echinochloa crus-galli, ECHCG); assay: Pre-emerge test, greenhouse herbicide activity screening; details: rating scale 0-100, 14 days after application
In short: as §1

[5] = test system: johnsongrass (Sorghum halepense, SORHA); assay: as above; details: rating scale 0-100, 14 days after application
In short: as §1

[6] = test system: sicklepod (Cassia obtusifolia, CASOB); assay: as above; details: rating scale 0-100, 14 days after application
In short: as §1

[7] = test system: velvetleaf (Abutilon theophrasti, ABUTH); assay: as above; details: rating scale 0-100, 14 days after application
In short: as §1

[8] = test system: lambsquarters (Chenopodium album, CHEAL); assay: as above; details: rating scale 0-100, 14 days after application
In short: as §1

[9] = test system: green foxtail (Setaria viridis, SETVI); assay: as above; details: rating scale 0-100, 14 days after application
In short: as §1

[10] = test system: large crabgrass (Digitaria sanguinalis, DIGSA); assay: as above; details: rating scale 0-100, 14 days after application
In short: as §1

[11] = test system: ivyleaf morningglory (Ipomoea hederacea, IPOHE); assay: as above; details: rating scale 0-100, 14 days after application
In short: as §1

[12] = test system: barnyardgrass (Echinochloa crus-galli, ECHCG); assay: Post-emerge test, greenhouse herbicide activity screening; details: rating scale 0-100 (0 no damage, 100 complete death), 14 days after application
In short: (§2)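 Applied at 15–1000 g ai/ha from acetone in 187 l/ha spray volume. Post-emergence applications included 0.25% v/v non-ionic surfactant and reached plants sown 8–21 days before. Pre-emergence applications were incorporated by surface watering. Efficacy or crop damage was rated on a 0–100 scale after 14 days.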

[13] = test system: johnsongrass (Sorghum halepense, SORHA); assay: as above; details: rating scale 0-100 (0 no damage, 100 complete death), 14 days after application
In short: as §2

[14] = test system: sicklepod (Cassia obtusifolia, CASOB); assay: as above; details: rating scale 0-100 (0 no damage, 100 complete death), 14 days after application
In short: as §2

[15] = test system: velvetleaf (Abutilon theophrasti, ABUTH); assay: as above; details: rating scale 0-100 (0 no damage, 100 complete death), 14 days after application
In short: as §2

[16] = test system: lambsquarters (Chenopodium album, CHEAL); assay: as above; details: rating scale 0-100 (0 no damage, 100 complete death), 14 days after application
In short: as §2

[17] = test system: green foxtail (Setaria viridis, SETVI); assay: as above; details: rating scale 0-100 (0 no damage, 100 complete death), 14 days after application
In short: as §2

[18] = test system: redroot pigweed (Amaranthus retroflexus, AMARE); assay: as above; details: rating scale 0-100 (0 no damage, 100 complete death), 14 days after application
In short: as §2

[19] = test system: large crabgrass (Digitaria sanguinalis, DIGSA); assay: as above; details: rating scale 0-100 (0 no damage, 100 complete death), 14 days after application
In short: as §2

[20] = test system: common ragweed (Ambrosia artemisizfolia L., AMBEL); assay: as above; details: rating scale 0-100 (0 no damage, 100 complete death), 14 days after application
In short: as §2

[21] = test system: ivyleaf morningglory (Ipomoea hederacea, IPOHE); assay: as above; details: rating scale 0-100 (0 no damage, 100 complete death), 14 days after application
In short: as §2

[22] = test system: upland rice (Oryza sp., var. Tebonnet, RICE); assay: Pre-emerge test, crop safety; details: rating scale 0-100, 14 days after application
In short: (§3)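 Fourteen days after spraying, crop and weed injury was graded visually from 0, no effect, to 100, every plant dead. Test substances were dissolved in acetone and applied at 15–1000 g ai/ha with a flat-fan nozzle. Application was either pre-emergence, one day after sowing, or post-emergence at the 2–3 leaf stage.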

[23] = test system: field corn (Zea mays L., var. Dekalb 535, CORN); assay: Pre-emerge test, crop safety; details: 63 g ai/ha; rating scale 0-100, 14 days after application
In short: as §3

COCCOC(=O)C(Cl)Cc1c(OC)c(Cl)cc(F)c1-n1c(=O)cc(C(F)(F)F)n(C)c1=O (stereo not drawn) [14-25]
Pre-emerge herbicidal activity, phytotoxicity rating AMARE ([1]; 63 g ai/ha): 100 | Pre-emerge herbicidal activity, phytotoxicity rating AMARE ([1]; 250 g ai/ha): 100 | Post-emerge phytotoxicity rating RICE (crop damage) ([2]; Rate 63 g ai/ha): 10 | Post-emerge phytotoxicity rating RICE (crop damage) ([2]; Rate 250 g ai/ha): 50 | Post-emerge phytotoxicity rating CORN (crop damage) ([3]; Rate 63 g ai/ha): 100 | Post-emerge phytotoxicity rating CORN (crop damage) ([3]; Rate 250 g ai/ha): 100 | Pre-emerge herbicidal activity, phytotoxicity rating ECHCG ([4]; 63 g ai/ha): 80 | Pre-emerge herbicidal activity, phytotoxicity rating ECHCG ([4]; 250 g ai/ha): 100 | Pre-emerge herbicidal activity, phytotoxicity rating SORHA ([5]; 63 g ai/ha): 80 | Pre-emerge herbicidal activity, phytotoxicity rating SORHA ([5]; 250 g ai/ha): 100 | Pre-emerge herbicidal activity, phytotoxicity rating CASOB ([6]; 63 g ai/ha): 50 | Pre-emerge herbicidal activity, phytotoxicity rating CASOB ([6]; 250 g ai/ha): 100 | Pre-emerge herbicidal activity, phytotoxicity rating ABUTH ([7]; 63 g ai/ha): 100 | Pre-emerge herbicidal activity, phytotoxicity rating ABUTH ([7]; 250 g ai/ha): 100 | Pre-emerge herbicidal activity, phytotoxicity rating CHEAL ([8]; 63 g ai/ha): 100 | Pre-emerge herbicidal activity, phytotoxicity rating CHEAL ([8]; 250 g ai/ha): 100 | Pre-emerge herbicidal activity, phytotoxicity rating SETVI ([9]; 63 g ai/ha): 90 | Pre-emerge herbicidal activity, phytotoxicity rating SETVI ([9]; 250 g ai/ha): 100 | Pre-emerge herbicidal activity, phytotoxicity rating DIGSA ([10]; 63 g ai/ha): 70 | Pre-emerge herbicidal activity, phytotoxicity rating DIGSA ([10]; 250 g ai/ha): 100 | Pre-emerge herbicidal activity, phytotoxicity rating IPOHE ([11]; 63 g ai/ha): 70 | Pre-emerge herbicidal activity, phytotoxicity rating IPOHE ([11]; 250 g ai/ha): 100 | Post-emerge Herbicidal Activity, phytotoxicity rating ECHCG ([12]; Rate 63 g ai/ha): 100 | Post-emerge Herbicidal Activity, phytotoxicity rating ECHCG ([12]; Rate 250 g ai/ha): 100 | Post-emerge Herbicidal Activity, phytotoxicity rating SORHA ([13]; Rate 63 g ai/ha): 40 | Post-emerge Herbicidal Activity, phytotoxicity rating SORHA ([13]; Rate 250 g ai/ha): 95 | Post-emerge Herbicidal Activity, phytotoxicity rating CASOB ([14]; Rate 63 g ai/ha): 50 | Post-emerge Herbicidal Activity, phytotoxicity rating CASOB ([14]; Rate 250 g ai/ha): 80 | Post-emerge Herbicidal Activity, phytotoxicity rating ABUTH ([15]; Rate 63 g ai/ha): 100 | Post-emerge Herbicidal Activity, phytotoxicity rating ABUTH ([15]; Rate 250 g ai/ha): 100 | Post-emerge Herbicidal Activity, phytotoxicity rating CHEAL ([16]; Rate 63 g ai/ha): 80 | Post-emerge Herbicidal Activity, phytotoxicity rating CHEAL ([16]; Rate 250 g ai/ha): 100 | Post-emerge Herbicidal Activity, phytotoxicity rating SETVI ([17]; Rate 63 g ai/ha): 50 | Post-emerge Herbicidal Activity, phytotoxicity rating SETVI ([17]; Rate 250 g ai/ha): 80 | Post-emerge Herbicidal Activity, phytotoxicity rating AMARE ([18]; Rate 63 g ai/ha): 95 | Post-emerge Herbicidal Activity, phytotoxicity rating AMARE ([18]; Rate 250 g ai/ha): 100 | Post-emerge Herbicidal Activity, phytotoxicity rating DIGSA ([19]; Rate 63 g ai/ha): 95 | Post-emerge Herbicidal Activity, phytotoxicity rating DIGSA ([19]; Rate 250 g ai/ha): 100 | Post-emerge Herbicidal Activity, phytotoxicity rating AMBEL ([20]; Rate 63 g ai/ha): 100 | Post-emerge Herbicidal Activity, phytotoxicity rating AMBEL ([20]; Rate 250 g ai/ha): 100 | Post-emerge Herbicidal Activity, phytotoxicity rating IPOHE ([21]; Rate 63 g ai/ha): 70 | Post-emerge Herbicidal Activity, phytotoxicity rating IPOHE ([21]; Rate 250 g ai/ha): 100 | Pre-emerge phytotoxicity rating, crop damage RICE ([22]; 63 g ai/ha): 90 | Pre-emerge phytotoxicity rating, crop damage RICE ([22]; 250 g ai/ha): 100 | Pre-emerge phytotoxicity rating, crop damage CORN [23]: 95
